Tests used:
Assay type in all cases: biochemical
JAK1 = JAK1 (Homo sapiens, UniProt P23458); assay: JAK kinase inhibition assay (EZ Reader, peptide substrate phosphorylation) - JAK1; conditions: JAK1 kinase 20 nM; 8 concentration points, max 10 μM
Summary of the method: (§1)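 Microfluidic mobility-shift detection of fluorescent peptide substrate phosphorylation, with JAK1 at 20 nM and JAK2, JAK3 and Tyk2 each at 1 nM final, in 20 mM HEPES pH 7.4, 10 mM MgCl2, 1 mM DTT. Reactions run at room temperature to 20–30% conversion, then EDTA-stopped. Compounds tested at 8 three-fold dilutions from 10 μM top final; IC50 from conversion curves.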

JAK3 = molecular target: T1, JAK3 (Homo sapiens, UniProt P52333); assay: JAK kinase inhibition assay (EZ Reader, peptide substrate phosphorylation) - JAK3; conditions: JAK3 kinase 1 nM; 8 concentration points, max 10 μM
T1 sequence (P52333 1-1124): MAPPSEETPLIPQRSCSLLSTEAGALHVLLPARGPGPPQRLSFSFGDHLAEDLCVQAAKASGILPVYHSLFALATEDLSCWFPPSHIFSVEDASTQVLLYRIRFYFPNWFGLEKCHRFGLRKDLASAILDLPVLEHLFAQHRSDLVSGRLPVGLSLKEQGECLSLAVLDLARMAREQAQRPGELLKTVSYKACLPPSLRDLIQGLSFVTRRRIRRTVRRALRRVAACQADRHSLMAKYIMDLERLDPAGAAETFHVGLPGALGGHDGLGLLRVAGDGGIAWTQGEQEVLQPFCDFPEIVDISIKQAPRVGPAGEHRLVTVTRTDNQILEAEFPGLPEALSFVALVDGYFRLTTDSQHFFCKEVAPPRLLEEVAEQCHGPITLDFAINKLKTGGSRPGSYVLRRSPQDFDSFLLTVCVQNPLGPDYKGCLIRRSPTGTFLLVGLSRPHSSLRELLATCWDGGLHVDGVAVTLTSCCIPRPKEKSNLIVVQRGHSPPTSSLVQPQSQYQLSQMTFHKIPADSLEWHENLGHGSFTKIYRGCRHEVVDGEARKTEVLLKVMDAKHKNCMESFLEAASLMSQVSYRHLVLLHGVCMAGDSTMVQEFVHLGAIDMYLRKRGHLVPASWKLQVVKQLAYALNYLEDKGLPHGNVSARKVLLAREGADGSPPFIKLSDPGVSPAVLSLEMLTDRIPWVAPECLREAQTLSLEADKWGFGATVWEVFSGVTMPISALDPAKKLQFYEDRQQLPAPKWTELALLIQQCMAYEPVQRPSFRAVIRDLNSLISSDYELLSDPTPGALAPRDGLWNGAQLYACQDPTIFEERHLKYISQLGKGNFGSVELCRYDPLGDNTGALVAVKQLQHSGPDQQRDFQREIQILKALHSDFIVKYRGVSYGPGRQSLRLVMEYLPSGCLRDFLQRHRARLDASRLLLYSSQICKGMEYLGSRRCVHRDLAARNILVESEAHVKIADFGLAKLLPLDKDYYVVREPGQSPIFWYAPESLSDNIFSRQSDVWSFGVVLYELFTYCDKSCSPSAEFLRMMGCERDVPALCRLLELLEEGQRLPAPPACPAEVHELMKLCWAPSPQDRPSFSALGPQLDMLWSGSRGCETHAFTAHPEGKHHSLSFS
Source text: (§2) Assay for Identifying Inhibitory Effects of Compounds on JAK Kinases
(§3) Janus kinases (JAK), including JAK1, JAK2, JAK3 and Tyk2, transduce a cytokine-mediated signal through a JAK-STAT pathway. The kinases are 120-140 kDa in size and have 7 determined homology regions: JH1 to JH7. JH1 is an important region for enzymatic activity and has typical characteristics of tyrosine kinases. Phosphorylation of tyrosine leads to a change in the conformation of JAK protein, thereby promoting binding of substrate. The JAK-STAT system includes three main parts: receptors penetrating a cell membrane, Janus kinases binding to the receptors, and signal transducers and activators of transcription (STAT) for transmitting signals to a nucleus and DNA. When cytokines bind to receptors, JAK phosphorylates the receptors and attracts STAT proteins. The STAT proteins are also phosphorylated and combined with one another to form dimers. The dimers enter the nucleus and bind to DNA, thereby leading to gene transcription.
(§4) EZ Reader from PerkinElmer can be used to detect the phosphorylation of polypeptide substrates catalyzed by kinases. The device is based on microfluidic techniques, and can directly detect fluorescently labeled substrates and products. The separation step is achieved by controlling the pressure and electric field strength in the microfluidic chip. In kinase assays, a product conversion ratio is usually controlled to be 20-30%. A biological test is used to identify inhibitory effects of compounds on JAKs.
(§5) Compound powder was dissolved in DMSO, sealed and stored in a freezer under −20° C. The in-house compound Ref1 was used as a positive control for JAK1, JAK2 and Tyk2 tests, and Ref2 was used as a positive control for JAK3 tests.
(§6) S2.8. Assay buffer: 20 mM HEPES buffer, pH 7.4, 10 mM magnesium chloride, 0.01% bovine serum albumin BSA, 0.0005% Tween-20 and 1 mM dithiothreitol solution.
(§7) S2.9. Stop buffer: 180 mM HEPES buffer, 20 mM ethylenediaminetetraacetic acid and 0.2% coating reagent 3.
(§8) S2.10. Separation buffer: 100 mM HEPES buffer, 10 mM ethylenediaminetetraacetic acid, 0.0005% Tween 20, 0.1% coating reagent 3 and 1% dimethyl sulfoxide.
The compound was dissolved in dimethyl sulfoxide and diluted to 10 mM concentration, a certain volume of solution was taken and diluted to 0.6 mM concentration, 10 μL of the 0.6 mM dilution was added to a 384-well microplate, and then was diluted 3-fold with a total of 8 concentration points. […]
Positive control (HPE1): Ref2, final concentration: 10 μM
(§9) Negative control (ZPE): DMSO, final content: 1.6%
(§10) Compounds: maximum final concentration: 10 μM; 3-fold dilution, 8 concentration points and 2 duplicates.
(§11) S4.1. 250 nL of the compound was added to each well of the assay microplate by using ECHO, and centrifuged at 1000 rpm for 1 minute.
(§12) S4.2. 5 μL of the assay buffer was added and agitated for a few seconds to fully dissolve the compound.
(§13) S4.3. 5 μL of 3× substrate solution and 5 μL of 3× kinase solution were added and centrifuged at 800 rpm for 1 minute.
(§14) S4.4. Final concentrations of JAK1, JAK2, JAK3 and Tyk2 kinases in the reaction system were 20 nM, 1 nM, 1 nM and 1 nM respectively.
(§15) S4.5. Incubation at room temperature, where kinases had time differences, and different batches of kinases had time differences.
(§16) S4.6. When 20%-30% of the reaction completed, 15 μL of stop buffer was added to stop the reaction, and centrifuged at 1000 rpm for 2 minutes.
(§17) S4.7. The microplates were placed on EZ Reader for reading.
(§18) S4.8. Readings on EZ Reader were calculated by using a peak height, where product conversion ratio (%)=product/(product+substrate)*100.
(§19) 5. Data Processing: IC50 calculation
(§20) A graphing software Xlfit was used to form a concentration curve of the test compound, and an IC50 value was calculated.
(§21) “A” means “≥10 μM”; “B” means “≥1 μM and <10 μM”; “C” means “≥0.1 μM and <1 μM”; and “D” means “<0.1 μM”.

JAK2 = JAK2 (Homo sapiens, UniProt O60674); assay: JAK kinase inhibition assay (EZ Reader, peptide substrate phosphorylation) - JAK2; conditions: JAK2 kinase 1 nM; 8 concentration points, max 10 μM
Source text: as §2, §3, §4, §5, §6, §7, §8
The compound was dissolved in dimethyl sulfoxide and diluted to 10 mM concentration, a certain volume of solution was taken and diluted to 0.6 mM concentration, 10 μL of the 0.6 mM dilution was added to a 384-well microplate, and then was diluted 3-fold with a total of 8 concentration points.
Positive control (HPE1): Ref1, final concentration: 10 μM […]
as §9, §10, §11, §12, §13, §14, §15, §16, §17, §18, §19, §20, §21

Tyk2 = Tyk2 (Homo sapiens, UniProt P29597); assay: JAK kinase inhibition assay (EZ Reader, peptide substrate phosphorylation) - Tyk2; conditions: Tyk2 kinase 1 nM; 8 concentration points, max 10 μM
Summary of the method: as §1

Sequence of JAK1 (P23458 whole entry): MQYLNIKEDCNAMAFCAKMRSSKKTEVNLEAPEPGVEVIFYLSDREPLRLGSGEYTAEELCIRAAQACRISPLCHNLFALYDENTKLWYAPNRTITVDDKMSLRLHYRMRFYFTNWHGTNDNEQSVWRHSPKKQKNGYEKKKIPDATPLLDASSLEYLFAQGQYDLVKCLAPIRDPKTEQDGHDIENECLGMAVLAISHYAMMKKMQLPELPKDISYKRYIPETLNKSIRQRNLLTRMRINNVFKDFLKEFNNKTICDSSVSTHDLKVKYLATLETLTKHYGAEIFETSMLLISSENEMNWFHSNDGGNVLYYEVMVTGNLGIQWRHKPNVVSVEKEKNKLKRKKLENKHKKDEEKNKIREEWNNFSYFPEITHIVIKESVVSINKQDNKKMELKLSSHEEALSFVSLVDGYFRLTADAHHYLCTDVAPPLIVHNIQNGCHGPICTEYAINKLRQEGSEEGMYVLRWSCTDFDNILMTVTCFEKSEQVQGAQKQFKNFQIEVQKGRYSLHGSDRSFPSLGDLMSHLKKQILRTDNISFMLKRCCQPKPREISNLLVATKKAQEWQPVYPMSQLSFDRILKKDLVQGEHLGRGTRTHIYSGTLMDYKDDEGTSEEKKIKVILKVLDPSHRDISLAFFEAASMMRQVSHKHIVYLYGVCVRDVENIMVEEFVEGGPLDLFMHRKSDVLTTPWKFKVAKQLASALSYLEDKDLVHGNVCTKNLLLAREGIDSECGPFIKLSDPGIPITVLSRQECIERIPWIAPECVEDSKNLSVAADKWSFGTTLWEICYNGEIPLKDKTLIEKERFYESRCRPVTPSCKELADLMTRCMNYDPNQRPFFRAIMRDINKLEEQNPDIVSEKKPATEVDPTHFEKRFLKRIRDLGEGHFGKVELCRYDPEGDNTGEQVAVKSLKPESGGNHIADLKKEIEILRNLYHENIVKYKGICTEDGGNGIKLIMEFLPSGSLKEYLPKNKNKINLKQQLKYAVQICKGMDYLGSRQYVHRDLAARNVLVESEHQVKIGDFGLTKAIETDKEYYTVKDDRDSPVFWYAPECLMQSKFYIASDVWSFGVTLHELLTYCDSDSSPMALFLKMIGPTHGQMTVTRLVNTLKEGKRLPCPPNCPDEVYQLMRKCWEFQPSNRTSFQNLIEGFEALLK
Sequence of JAK2 (O60674 whole entry): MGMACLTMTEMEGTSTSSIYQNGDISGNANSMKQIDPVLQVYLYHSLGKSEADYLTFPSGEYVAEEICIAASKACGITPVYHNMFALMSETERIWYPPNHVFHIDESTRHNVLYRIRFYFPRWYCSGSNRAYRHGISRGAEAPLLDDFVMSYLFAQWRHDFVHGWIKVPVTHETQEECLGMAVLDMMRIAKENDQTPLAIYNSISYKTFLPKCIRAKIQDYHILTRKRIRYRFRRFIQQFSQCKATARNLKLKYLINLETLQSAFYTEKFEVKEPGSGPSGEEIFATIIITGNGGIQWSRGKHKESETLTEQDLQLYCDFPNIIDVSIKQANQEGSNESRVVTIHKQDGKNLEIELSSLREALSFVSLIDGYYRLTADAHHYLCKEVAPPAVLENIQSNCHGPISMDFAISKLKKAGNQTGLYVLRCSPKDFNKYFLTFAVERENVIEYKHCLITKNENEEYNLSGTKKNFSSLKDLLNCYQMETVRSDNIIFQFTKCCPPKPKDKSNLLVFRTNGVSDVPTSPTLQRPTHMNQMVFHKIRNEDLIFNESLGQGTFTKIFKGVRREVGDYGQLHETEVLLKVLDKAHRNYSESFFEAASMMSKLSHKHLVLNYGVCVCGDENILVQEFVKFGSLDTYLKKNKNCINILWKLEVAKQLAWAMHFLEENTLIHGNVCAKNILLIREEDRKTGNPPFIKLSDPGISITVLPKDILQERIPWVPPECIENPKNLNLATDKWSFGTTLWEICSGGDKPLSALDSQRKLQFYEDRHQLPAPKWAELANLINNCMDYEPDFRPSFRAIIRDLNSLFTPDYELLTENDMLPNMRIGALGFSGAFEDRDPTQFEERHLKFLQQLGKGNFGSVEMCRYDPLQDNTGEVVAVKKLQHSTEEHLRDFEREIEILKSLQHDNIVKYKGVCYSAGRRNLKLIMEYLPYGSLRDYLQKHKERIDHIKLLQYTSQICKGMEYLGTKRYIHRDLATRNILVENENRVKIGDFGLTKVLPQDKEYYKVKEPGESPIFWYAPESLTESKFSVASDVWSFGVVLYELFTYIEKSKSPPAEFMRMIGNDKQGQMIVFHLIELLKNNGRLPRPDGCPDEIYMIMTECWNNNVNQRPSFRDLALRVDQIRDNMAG
Sequence of Tyk2 (P29597 whole entry): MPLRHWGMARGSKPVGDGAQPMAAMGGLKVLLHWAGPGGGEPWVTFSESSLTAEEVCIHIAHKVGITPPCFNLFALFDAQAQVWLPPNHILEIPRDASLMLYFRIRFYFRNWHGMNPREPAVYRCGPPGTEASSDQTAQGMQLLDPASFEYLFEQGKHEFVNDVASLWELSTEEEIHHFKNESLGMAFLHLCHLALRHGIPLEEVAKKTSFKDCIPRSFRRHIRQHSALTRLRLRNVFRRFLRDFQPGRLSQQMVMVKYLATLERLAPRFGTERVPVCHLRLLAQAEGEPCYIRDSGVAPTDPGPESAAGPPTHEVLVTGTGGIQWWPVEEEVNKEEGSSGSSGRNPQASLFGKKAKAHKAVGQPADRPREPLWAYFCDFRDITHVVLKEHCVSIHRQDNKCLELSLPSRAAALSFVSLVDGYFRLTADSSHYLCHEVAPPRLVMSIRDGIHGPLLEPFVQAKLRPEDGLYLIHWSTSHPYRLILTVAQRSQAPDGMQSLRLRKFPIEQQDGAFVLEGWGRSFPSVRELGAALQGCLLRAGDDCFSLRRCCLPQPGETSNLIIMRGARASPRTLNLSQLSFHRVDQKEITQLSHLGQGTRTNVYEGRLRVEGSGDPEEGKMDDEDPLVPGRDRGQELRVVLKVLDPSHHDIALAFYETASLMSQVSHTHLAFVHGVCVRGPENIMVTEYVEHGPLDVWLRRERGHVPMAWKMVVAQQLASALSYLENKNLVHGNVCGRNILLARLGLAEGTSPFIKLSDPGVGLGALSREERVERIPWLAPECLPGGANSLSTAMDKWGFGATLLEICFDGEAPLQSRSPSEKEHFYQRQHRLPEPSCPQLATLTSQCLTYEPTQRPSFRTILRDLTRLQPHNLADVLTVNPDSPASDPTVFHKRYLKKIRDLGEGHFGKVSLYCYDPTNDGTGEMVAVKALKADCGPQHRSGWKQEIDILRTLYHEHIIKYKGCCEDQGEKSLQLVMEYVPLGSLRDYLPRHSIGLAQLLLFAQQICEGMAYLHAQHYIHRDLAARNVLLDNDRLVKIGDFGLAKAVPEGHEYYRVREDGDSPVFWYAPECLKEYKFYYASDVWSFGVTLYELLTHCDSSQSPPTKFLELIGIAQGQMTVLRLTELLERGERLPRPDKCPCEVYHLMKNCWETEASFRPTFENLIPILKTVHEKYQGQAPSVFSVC

Compound	IC50 (JAK1) [µM]	IC50 (JAK3) [µM]	IC50 (JAK2) [µM]	IC50 (Tyk2) [µM]
CCCCS(=O)(=O)Nc1ccc(-c2ccnc(Nc3cnn(C)c3)n2)cc1 [TDM-180832, N-(4-(2-((1-methyl-1H-pyrazol-4-yl)amino)pyrimidin-4-yl)phenyl)butane-1-sulfonamide]	0.1 to 1	1 to 10	0.1 to 1	0.1 to 1
Cn1cc(Nc2nccc(-c3ccc(NC(=O)CC#N)nc3)n2)cn1 [TDM-180833, 2-cyano-N-(5-(2-((1-methyl-1H-pyrazol-4-yl)amino)pyrimidin-4-yl)pyridin-2-yl)acetamide]	0.1 to 1	1 to 10	0.1 to 1	0.1 to 1
CCOCCS(=O)(=O)Nc1ccc(-c2ccnc(Nc3cnn(C)c3)n2)cc1 [TDM-180834, 2-ethoxyl-N-(4-(2-((1-methyl-1H-pyrazol-4-yl)amino)pyrimidin-4-yl)phenyl)ethyl-1-sulfonamide]	< 0.1	1 to 10	< 0.1	0.1 to 1
C=CCS(=O)(=O)Nc1ccc(-c2ccnc(Nc3cnn(C)c3)n2)cc1 [TDM-180844, N-(4-(2-((1-methyl-1H-pyrazol-4-yl)amino)pyrimidin-4-yl)phenyl)prop-2-ene-1-sulfonamide]	0.1 to 1	1 to 10	0.1 to 1	0.1 to 1
Cn1cc(Nc2nccc(-c3ccc(NC(=O)C(F)F)nc3)n2)cn1 [TDM-180849, 2,2-difluoro-N-(5-(2-((1-methyl-1H-pyrazol-4-yl)amino)pyrimidin-4-yl)pyridin-2-yl)acetamide]	0.1 to 1	1 to 10	0.1 to 1	0.1 to 1
Cn1cc(Nc2nccc(-c3ccc(NS(=O)(=O)CCC(F)(F)F)cc3)n2)cn1 [TDM-180850, 3,3,3-trifluoro-N-(4-(2-((1-methyl-1H-pyrazol-4-yl)amino)pyrimidin-4-yl)phenyl)propyl-1-sulfonamide]	0.1 to 1	≥ 10	0.1 to 1	0.1 to 1
